Measured values taken from US8835440B2, “Cyclic pyrimidin-4-carboxamides as CCR2 receptor antagonists for treatment of inflammation, asthma and COPD” (Boehringer Ingelheim International GmbH, priority 2008, dated 2014).

Biological target: T1, CCR2 (Homo sapiens, UniProt P41597)
T1 construct: Membranes were prepared from THP-1 cells; endogenous in cells; host or cells: THP-1 cells (membrane preparation)
T1 sequence (P41597 1-360 isoform P41597-2): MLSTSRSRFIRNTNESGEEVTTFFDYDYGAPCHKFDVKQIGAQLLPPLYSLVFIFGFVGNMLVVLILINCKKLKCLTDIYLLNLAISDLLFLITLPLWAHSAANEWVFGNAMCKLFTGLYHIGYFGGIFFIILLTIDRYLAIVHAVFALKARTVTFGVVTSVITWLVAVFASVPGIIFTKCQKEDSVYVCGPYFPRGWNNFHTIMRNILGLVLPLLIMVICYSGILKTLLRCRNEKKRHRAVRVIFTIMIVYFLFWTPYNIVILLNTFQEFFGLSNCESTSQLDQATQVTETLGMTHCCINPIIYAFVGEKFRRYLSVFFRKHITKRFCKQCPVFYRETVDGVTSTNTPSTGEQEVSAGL
Assay: CCR2 receptor membrane binding assay ([125I]MCP-1, THP-1 cell membranes, SPA beads)
Conditions: for remaining activity at 10 µM: @ 10 μM test compound, THP-1 membranes, read-out: CCR2 % ctrl @ 10 μM; for Ki: dissociation constant hKi, [125I]MCP-1 binding to THP-1 membranes
How it was run: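 hKi was derived by iterative law-of-mass-action fitting of scintillation counts read at 8 h. Compound (1% DMSO final) competed with ca. 25000 cpm [125I]MCP-1 for THP-1 membranes bound to WGA-PVT beads. Buffer: 25 mM HEPES pH 7.2, 5 mM MgCl2, 0.5 mM CaCl2, 0.2% BSA.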

Row | SMILES | remaining activity at 10 µM [%] | Ki [nM]
1 | Cc1c(NCc2ccc(C(C)(C)C)cc2)ncnc1C(=O)N1CCC(N2CCC(c3ccncc3)CC2)CC1 [Example 201] | 6 | 101
2 | Cc1c(NCc2ccc(C(C)(C)C)cc2)ncnc1C(=O)N1CCC(N2CCC(C#N)CC2)CC1 [Example 202] | 7 | 292
3 | Cc1c(NCc2ccc(C(C)(C)C)cc2)ncnc1C(=O)N1CCC(N2CCC(Oc3ccc(F)c(F)c3)CC2)CC1 [Example 203] | 11 | 641
4 | Cc1c(NCc2ccc(C(C)(C)C)cc2)ncnc1C(=O)N1CCC(N2CCC(Oc3ccccn3)CC2)CC1 [Example 204] | 6 | 123
5 | Cc1c(NCc2ccc(C(C)(C)C)cc2)ncnc1C(=O)N1CCC(N2CCC(NS(=O)(=O)C(C)C)CC2)CC1 [Example 205] | 11 | 135
6 | CCN(C1CCN(C2CCN(C(=O)c3ncnc(NCc4ccc(C(C)(C)C)cc4)c3C)CC2)CC1)S(C)(=O)=O [Example 206] | 3 | 44
7 | Cc1nc(NCc2ccc(C(C)(C)C)cc2)c(C)c(C(=O)N2CCC(N3CCC(S(=O)(=O)N(C)C)CC3)CC2)n1 [Example 207] | 35 | 1180
8 | COC1CCN(C2CCN(C(=O)c3ncnc(NCc4ccc(C(C)(C)C)cc4)c3C)CC2)CC1 [Example 208] | 7 | 99
9 | Cc1c(NCc2ccc(C(C)(C)C)cc2)ncnc1C(=O)N1CCC(N2CCOC(C)C2)CC1 (centres unmarked) [Example 209] | 7 | 177
10 | Cc1c(NCc2ccc(C(C)(C)C)cc2)ncnc1C(=O)N1CCC(N2CCC(c3ccccc3)C2)CC1 (centres unmarked) [Example 210] | 0 | 83
11 | CCC(C)NC(=O)C1CCN(C2CCN(C(=O)c3ncnc(NCc4ccc(C(C)(C)C)cc4)c3C)CC2)CC1 (centres unmarked) [Example 211] | 5 | 140
12 | Cc1c(NCc2ccc(C(C)(C)C)cc2)ncnc1C(=O)N1CCC(N2CCC(n3c(C)nnc3C)CC2)CC1 [Example 212] | 24 | 731
13 | Cc1noc(C2CCN(C3CCN(C(=O)c4ncnc(NCc5ccc(C(C)(C)C)cc5)c4C)CC3)CC2)n1 [Example 213] | 14 | 430
14 | CNC(=O)C[C@H]1CCCN1C1CCN(C(=O)c2ncnc(NCc3ccc(C(C)(C)C)cc3)c2C)CC1 [Example 214] | 20 | 711
15 | CNC(=O)C[C@@H]1CCCN1C1CCN(C(=O)c2ncnc(NCc3ccc(C(C)(C)C)cc3)c2C)CC1 [Example 215] | 42 | 2150
16 | Cc1c(NCc2ccc(C(C)(C)C)cc2)ncnc1C(=O)N1CCC(N2CCC[C@@H]2CC(=O)N(C)C)CC1 [Example 216] | 59 | 4280

Row | SMILES | remaining activity at 10 µM [%] | Ki [nM]
17 | Cc1c(NCc2ccc(C(C)(C)C)cc2)ncnc1C(=O)N1CCC(N2CCC[C@H]2CC(=O)N(C)C)CC1 [Example 217] | 54 | 4330
18 | Cc1c(NCc2ccc(C(C)(C)C)cc2)ncnc1C(=O)N1CCC(N2CC(C)OC(C)C2)CC1 (centres unmarked) [Example 218] | 8 | 281
19 | CO[C@@H]1CCN(C2CCN(C(=O)c3ncnc(NCc4ccc(C(C)(C)C)cc4)c3C)CC2)C1 [Example 219] | 22 | 476
20 | CO[C@H]1CCN(C2CCN(C(=O)c3ncnc(NCc4ccc(C(C)(C)C)cc4)c3C)CC2)C1 [Example 220] | 27 | 979
21 | CNS(=O)(=O)C1CCN(C2CCN(C(=O)c3ncnc(NCc4ccc(C(C)(C)C)cc4)c3C)CC2)CC1 [Example 221] | 12 | 172
22 | Cc1c(NCc2ccc(C(C)(C)C)cc2)ncnc1C(=O)N1CCC(N2CC(N(C)S(C)(=O)=O)C2)CC1 [Example 222] | 31 | 1310
23 | Cc1c(NCc2ccc(C(C)(C)C)cc2)ncnc1C(=O)N1CCC(N2CC(NS(C)(=O)=O)C2)CC1 [Example 223] | 14 | 244
24 | CNC(=O)C1(C)CCN(C2CCN(C(=O)c3ncnc(NCc4ccc(C(C)(C)C)cc4)c3C)CC2)CC1 [Example 224] | 35 | 1230
25 | Cc1c(NCc2ccc(C(C)(C)C)cc2)ncnc1C(=O)N1CCC(N2CCC(c3ccccc3)CC2)CC1 [Example 225] | 0 | 21
26 | Cc1c(NCc2ccc(Cl)c(Cl)c2)ncnc1C(=O)N1CCC(N2CC[C@H](N(C)S(C)(=O)=O)C2)CC1 [Example 226] | 36 | 1170
27 | CO[C@@H]1CN(C2CCN(C(=O)c3ncnc(NCc4ccc(Cl)c(Cl)c4)c3C)CC2)CC[C@H]1N(C)S(C)(=O)=O [Example 227] | 22 | 333
28 | Cc1c(NCc2ccc(Cl)c(Cl)c2)ncnc1C(=O)N1CCC(N2CCC(S(N)(=O)=O)CC2)CC1 [Example 228] | 16 | 331
29 | Cc1c(NCCc2ccc(Cl)c(Cl)c2)ncnc1C(=O)N1CCC(N2CCC[C@H](O)C2)CC1 [Example 229] | 39 | 1130
30 | CC(=O)N1CCN(C2CCN(C(=O)c3ncnc(NCCc4ccc(Cl)c(Cl)c4)c3C)CC2)CC1 [Example 230] | 45 | 1840
31 | Cc1c(NCCc2ccc(Cl)c(Cl)c2)ncnc1C(=O)N1CCC(N2CCC[C@@H](O)C2)CC1 [Example 231] | 15 | 215
32 | Cc1c(NCCc2ccc(Cl)c(Cl)c2)ncnc1C(=O)N1CCC(N2CC[C@@H](C(N)=O)C2)CC1 [Example 232] | 34 | 924

More lines, now with the values ahead:

Row | remaining activity at 10 µM [%] | Ki [nM] | SMILES
33 | 9 | 1560 | Cc1c(NCc2ccc(C(C)(C)C)cc2)ncnc1C(=O)N1CCC(N(C)C2CCCOC2)CC1 (centres unmarked) [Example 228a]
34 | 4 | 2 | COC1COCCC1NC1CCN(C(=O)c2ncnc(NCC3CCC[C@@H](c4ccccc4)C3)c2C)CC1 (some centres unmarked) [Example 228b]
35 | 0 | 29 | COC1COCCC1NC1CCN(C(=O)c2ncnc(NCc3ccc(C(C)(C)C)cc3)c2C)CC1 (centres unmarked) [Example 228c]
36 | 1 | 91 | Cc1c(NCc2ccc(C(C)(C)C)cc2)ncnc1C(=O)N1CCC(NC2CCOCC2F)CC1 (centres unmarked) [Example 228d]
37 | 40 | 3720 | CCOC(=O)N1CCC(NC2CCN(C(=O)c3ncnc(NCc4ccc(C(C)(C)C)cc4)c3C)CC2)C(OC)C1 (centres unmarked) [Example 228e]
38 | 1 | 15 | Cc1c(NCc2ccc(C(C)(C)C)cc2)ncnc1C(=O)N1CCC(NC2CCOc3ccccc32)CC1 (centres unmarked) [Example 228f]
39 | 6 | 169 | COC1CC(F)(F)CCC1NC1CCN(C(=O)c2ncnc(NCc3ccc(C(C)(C)C)cc3)c2C)CC1 (centres unmarked) [Example 228g]
40 | – | 23 | CO[C@@H]1COCC[C@@H]1NC1CCN(C(=O)c2ncnc(NCc3ccc(C(C)(C)C)cc3)c2C)CC1 [Example 228ga]
41 | – | 561 | CC(=O)N1CCC[C@@H](NC2CCN(C(=O)c3ncnc(NCc4ccc(C(C)(C)C)cc4)c3C)CC2)C1 [Example 228gc]
42 | – | 1090 | Cc1c(NCc2ccc(C(C)(C)C)cc2)ncnc1C(=O)N1CCC(N[C@@H]2CCCN(S(C)(=O)=O)C2)CC1 [Example 228gd]
43 | – | 37 | Cc1c(NCc2ccc(C(C)(C)C)cc2)ncnc1C(=O)N1CCC(N2CCC(COc3ccccc3)C2)CC1 (centres unmarked) [Example 228ge]
44 | – | 145 | Cc1c(NCc2ccc(C(C)(C)C)cc2)ncnc1C(=O)N1CCC(N2CCC(Cc3cccnc3)C2)CC1 (centres unmarked) [Example 228gf]
45 | – | 1030 | Cc1c(NCc2ccc(C(C)(C)C)cc2)ncnc1C(=O)N1CCC(N2CCc3ncc(C(F)(F)F)cc3C2)CC1 [Example 228gg]
46 | – | 4070 | Cc1c(NCc2ccc(C(C)(C)C)cc2)ncnc1C(=O)N1CCC(NCC2CCCCO2)CC1 (centres unmarked) [Example 228gh]
47 | – | 1100 | Cc1c(NCc2ccc(C(C)(C)C)cc2)ncnc1C(=O)N1CCC(NC2CCOc3cccnc32)CC1 (centres unmarked) [Example 228gi]
48 | – | 55 | Cc1c(NCc2ccc(C(C)(C)C)cc2)ncnc1C(=O)N1CCC(N2CCC3(CC2)CNC(=O)O3)CC1 [Example 228gj]
49 | – | 44 | Cc1c(NCc2ccc(C(C)(C)C)cc2)ncnc1C(=O)N1CCC(N2CCC(c3ccc(C#N)cc3)CC2)CC1 [Example 228gk]
50 | – | 537 | Cc1c(NCc2ccc(C(C)(C)C)cc2)ncnc1C(=O)N1CCC(N2CCC(Cc3ccc(F)c(F)c3)CC2)CC1 [Example 228gl]
51 | – | 28 | Cc1c(NCc2ccc(C(C)(C)C)cc2)ncnc1C(=O)N1CCC(N2C3CCC2CC(O)C3)CC1 (centres unmarked) [Example 228gm]
52 | – | 333 | CO[C@@H]1COCC[C@H]1NC1CCN(C(=O)c2ncnc(NCc3ccc(C(C)(C)C)cc3)c2C)CC1 [Example 228gn]
53 | – | 1350 | Cc1c(NCc2ccc(C(C)(C)C)cc2)ncnc1C(=O)N1CCC(NC2CCOCC2n2ncnn2)CC1 (centres unmarked) [Example 228gp]
54 | 0 | 5 | COC1COCCC1N(C)C1CCN(C(=O)c2ncnc(NCC3CCC[C@@H](c4ccccc4)C3)c2C)CC1 (some centres unmarked) [Example 228h]
55 | – | 32 | CO[C@@H]1COCC[C@@H]1N(C)C1CCN(C(=O)c2ncnc(NCc3ccc(C(C)(C)C)cc3)c2C)CC1 [Example 228ha]
